Results from patent US20060280725A1, “Compositions and methods of treating and diagnosing hepatoma” (priority 2003, published 2006).
Where two headings read alike, the source gives them in different places.

Key:
[1] = test system: THLE-5B; assay: Glutamine transport assay (inhibition and kinetic analysis); format: cell-based, human
Experimental: FIG. 1. Amino acid inhibition analysis of glutamine transport in the Hep3B, PLC/PRF/5 and Focus human hepatoma cell lines and the THLE-5B SV40-immortalized human liver epithelial cell line. The Na^+-dependent transport of 50 μM L-glutamine was measured as described in the Methods section in the absence or presence of the indicated unlabeled amino acids at 5 mM. Testing of cysteine (CYSH) required the presence of 5 mM dithiothreitol (DTT) as a reducing agent, so DTT was tested alone as well. Arrows indicate the relative transport rates for 50 μM L-glutamine in primary human adult (solid arrow) and fetal (open arrow) hepatocytes. The results represent the average±SD of four separate determinations (*p<0.010 versus control). The Eadie-Hofstee plots of the kinetic analyses are shown as an inset in each figure, with the dashed lines representing the resolved high and low affinity components of the composite data (solid line). The derived values of the kinetic constants for each component are given in the Results section.
Glutamine Transport Assays. Measurement of initial-rate glutamine uptake was carried out via the cluster-tray method originally described by Gazzola (21) as reported previously (6, 9). Briefly, after trypsinization hepatoma cells were plated at a density of 1×10^5 cells/well in 24-well culture plates (Costar Corp., Cambridge, Mass.) and allowed to grow to >80% confluence, typically one to two days later. For initial-rate measurements, the radiotracer utilized was L-[G-^3H] glutamine (Amersham Corp., Arlington Heights, Ill.) at 4 μCi/ml, in the presence of unlabeled L-glutamine at 50 μM. For kinetic studies, the amount of unlabeled glutamine in the transport buffer varied from 10 μM to 10 mM. All transport measurements were carried out at 37° C. and were terminated after 30 s by three rapid washes with an ice-cold phosphate-buffered saline solution. Intracellular radiolabeled glutamine was extracted with 0.2 ml/well of 0.2% sodium dodecyl sulfate (SDS) and 0.2 N NaOH; after 1 h, 0.1 ml of the lysate was neutralized with 10 μl of 2 N HCl and subjected to scintillation spectrophotometry in a Packard TopCount™ (Packard Instruments, Meriden, Conn.). The remaining lysate was utilized for the determination of cellular protein by the bicinchoninic acid (BCA) method (Pierce Chemical Co., Rockford, Ill.). Rates of glutamine transport were calculated from the cpm per sample, the specific activity of the uptake mix (in cpm/nmol) and normalized to cellular protein content in a Microsoft Excel® spreadsheet program. Transport values obtained in the absence of extracellular Na^+ (diffusion and Na^+-independent uptake) were subtracted from those in the presence of Na^+ (total uptake) to yield Na^+-dependent rates which are reported in units of nmol•mg^−1 protein•30 s^−1. All transport values depicted are the average±standard deviation of four separate determinations. Kinetic analysis of Eadie-Hofstee linearized transport data (v vs. v/[L-GLN]) was performed by regression analysis (Cricket Graph®, Computer Associates, Islandia, N.Y.). Nonlinear regression analysis was performed with DataDesk (Data Description, Inc. Ithaca, N.Y.) and Excel for two component Michaelis-Menten kinetics: v=((Vmax1×[S])/(Km1+[S])+(Vmax2×[S])/(Km2+[S])).
It should be noted that extensive depletion of intracellular amino acid pools were not performed prior to transport measurements in these studies because we sought to assess glutamine uptake under more physiological conditions. […]

[2] = test system: System A & N isoforms; conditions: read-out: deduced Km values for glutamine; cited from earlier work

NC(=O)CC[C@H](N)C(=O)O [glutamine, L-glutamine]
Vmax, high affinity component [1]: 30.8 nmol•mg^−1 protein•30 s^−1 | Vmax, low affinity component [1]: 32.6 nmol•mg^−1 protein•30 s^−1 | Km ([1]; read-out: Km, high affinity component): 135 µM | Km ([1]; read-out: Km, low affinity component): 1300 µM | Km [2]: 1000 to 3000 µM
